{"source": "patent US12629370B2", "about": "“Treatment of prostate cancer” (Sumitomo Pharma Co., Ltd., priority 2016, dated 2026)", "assay_type_in_all_cases": "in vivo, human", "key": {"LH": {"tested_on": "LH", "assay": "Example 9: LH", "description": "(§1) Eligible male patients were aged ≥18 years with a histologically confirmed diagnosis of localized, intermediate-risk prostate cancer, for whom 6-month neoadjuvant and adjuvant androgen deprivation therapy (ADT) to external beam radiation therapy (EBRT) was indicated. The criteria for establishing intermediate-risk prostate cancer included the presence of one of the following, without any high-risk feature: T2b-T2c disease, Gleason score 7, or prostate-specific antigen (PSA) 10-20 ng/mL. […] Based on investigator discretion and clinical assessment of the patient's overall medical and disease status, participation was allowed for older patients with high-risk disease (e.g., based on Gleason score or tumor status) who were deemed likely to benefit from 6 months of neoadjuvant/adjuvant ADT.\nBoth treatment arms received treatment for 24 weeks. […] EBRT began no later than day 1, week 17.\n(§2) Patients were evaluated every 4 weeks during the treatment period (including day 1, week 25), at end of treatment (defined as week 29), during follow-up (week 33), and at end of study (EOS).\n(§3) Samples for testosterone, luteinizing hormone (LH), FSH, and PSA concentrations were taken at screening, on day 1 of the first week (additionally days 2 and 4 for testosterone and LH), and on day 1 of weeks 2, 3, 5, 9, 13, 17, 21, 25, 29, 33, and 37 thereafter."}, "[1]": {"tested_on": "patients with intermediate-risk prostate cancer", "assay": "Example 9: quality of life (EORTC QLQ-C30, QLQ-PR25, AMS)", "description": "(§4) Eligible male patients were aged ≥18 years with a histologically confirmed diagnosis of localized, intermediate-risk prostate cancer, for whom 6-month neoadjuvant and adjuvant androgen deprivation therapy (ADT) to external beam radiation therapy (EBRT) was indicated. The criteria for establishing intermediate-risk prostate cancer included the presence of one of the following, without any high-risk feature: T2b-T2c disease, Gleason score 7, or prostate-specific antigen (PSA) 10-20 ng/mL. Additional inclusion criteria included: EBRT scheduled to begin ≥12 weeks after baseline visit; screening serum testosterone >150 ng/dL (5.2 nmol/L); screening PSA concentration >2 ng/ml; body mass index ≥18.0 at screening or baseline (i.e., the subject's BMI prior to treatment commencing); Eastern Cooperative Oncology Group performance status of 0 or 1 at screening. Based on investigator discretion and clinical assessment of the patient's overall medical and disease status, participation was allowed for older patients with high-risk disease (e.g., based on Gleason score or tumor status) who were deemed likely to benefit from 6 months of neoadjuvant/adjuvant ADT. Most patients had intermediate-risk disease. However, a few patients, based on Gleason score or tumor, node, and metastasis staging system, were technically of higher than intermediate risk.\n(§5) Both treatment arms received treatment for 24 weeks. Patients remained on treatment for at least 12 weeks before the start of external beam radiation treatment (EBRT), which was initiated for most patients between Week 13, Day 1 and Week 15, Day 1. EBRT began no later than day 1, week 17.\nQuality of Life (QoL) was assessed via the core 30-item European Organisation for Research and Treatment of Cancer quality of life questionnaire (EORTC QLQ-C30), the 25-item prostate cancer module EORTC questionnaire (EORTC QLQ-PR25), and the aging male survey (AMS). QoL assessments were completed at screening, on day 1 of weeks 1, 5, 13, and 25, and at weeks 29, 33, and 37."}, "serum testosterone": {"tested_on": "serum testosterone", "assay": "Example 9: serum testosterone, castration and recovery, neoadjuvant/adjuvant ADT to EBRT, versus degarelix", "conditions": "for Percent recovery (95% CI) to baseline testosterone or >280 ng/dL: 12 weeks from last dose", "description": "as §1\nBoth treatment arms received treatment for 24 weeks. […] EBRT began no later than day 1, week 17. […]\nas §3"}, "FSH": {"tested_on": "FSH", "assay": "Example 9: FSH", "description": "as §4, §5, §2\nas §3, with “thereafter. […] Suppression of FSH was less profound than that of LH, but consistent with the literature, and was greater than that observed with GnRH agonists.” for “thereafter.”"}, "PSA": {"tested_on": "PSA", "assay": "Example 9: PSA", "description": "as §4, §5, §2\nas §3, with “thereafter. […] Suppression of FSH was less profound than that of LH, but consistent with the literature, and was greater than that observed with GnRH agonists.” for “thereafter.”"}, "[2]": {"conditions": "from baseline (day 1) to week 25"}, "[3]": {"conditions": "subjects with at least 24 weeks of treatment"}}, "note": "Where a SMILES comes first, the peptide text is derived from it. [ ]: non-standard residue; d: D form. The star is where a group is joined. dPhe(4-NHCONH2) = NC(=O)Nc1ccc(C[C@@H](N)C(=O)O)cc1; Dihydroorotyl(S) = O=C1C[C@@H](C(=O)*)NC(=O)N1; dPhe(4-Cl) = N[C@H](Cc1ccc(Cl)cc1)C(=O)O; Phe(4-NH2) = Nc1ccc(C[C@H](N)C(=O)O)cc1; d2Nal = N[C@H](Cc1ccc2ccccc2c1)C(=O)O; Lys(iPr) = CC(C)NCCCC[C@H](N)C(=O)O; d3Pal = N[C@H](Cc1cccnc1)C(=O)O", "data": [{"compound": "CC(=O)N[C@H](Cc1ccc2ccccc2c1)C(=O)N[C@H](Cc1ccc(Cl)cc1)C(=O)N[C@H](Cc1cccnc1)C(=O)N[C@@H](CO)C(=O)N[C@@H](Cc1ccc(NC(=O)[C@@H]2CC(=O)NC(=O)N2)cc1)C(=O)N[C@H](Cc1ccc(NC(N)=O)cc1)C(=O)N[C@@H](CC(C)C)C(=O)N[C@@H](CCCCNC(C)C)C(=O)N1CCC[C@H]1C(=O)N[C@H](C)C(N)=O", "note": "[Degarelix, degarelix, reference compound] (Ac-[d2Nal][dPhe(4-Cl)][d3Pal]S[Phe(4-NH2)](Dihydroorotyl(S))[dPhe(4-NHCONH2)]L[Lys(iPr)]P[dA]-NH2)", "values": [{"measurement": "Median LH", "setting": "LH; Baseline", "value": 4.8, "unit": "mlU/mL"}, {"measurement": "LH level", "setting": "LH; Day 4", "value": 0.499, "unit": "mIU/mL"}, {"measurement": "Median LH", "setting": "LH; Week 24", "value": 0.1, "unit": "mlU/mL"}, {"measurement": "mean LH level", "setting": "LH; Week 25, Day 1", "value": 0.342, "unit": "IU/L"}, {"measurement": "Median LH", "setting": "LH; Week 28/EOT visit", "value": 0.2, "unit": "mlU/mL"}, {"measurement": "Median LH", "setting": "LH; Week 32/follow-up", "value": 0.5, "unit": "mlU/mL"}, {"measurement": "Median LH", "setting": "LH; Week 36/EOS", "value": 1.4, "unit": "mlU/mL"}, {"measurement": "Global health/QoL, Mean (SD) change", "setting": "[1]; [2]", "value": "−7.5 (13.7)"}, {"measurement": "Hormonal treatment-related symptoms, Mean (SD) change", "setting": "[1]; [2]", "value": "12.9 (10.4)"}, {"measurement": "Sexual activity, Mean (SD) change", "setting": "[1]; [2]", "value": "−11.8 (36.3)"}, {"measurement": "Global health/QoL, Mean (SD) change", "setting": "[1]; from baseline to week 36 (EOS)", "value": "−6.8 (16.0)"}, {"measurement": "Hormonal treatment-related symptoms, Mean (SD) change", "setting": "[1]; from baseline to week 36 (EOS)", "value": "11.7 (10.2)"}, {"measurement": "Sexual activity, Mean (SD) change", "setting": "[1]; from baseline to week 36 (EOS)", "value": "−5.3 (34.7)"}, {"measurement": "Global health/QoL, Mean (SD) change", "setting": "[1]; from week 25 to week 36", "value": "0.7 (15.5)"}, {"measurement": "Hormonal treatment-related symptoms, Mean (SD) change", "setting": "[1]; from week 25 to week 36", "value": "−1.2 (9.1)"}, {"measurement": "Sexual activity, Mean (SD) change", "setting": "[1]; from week 25 to week 36", "value": "6.6 (22.8)"}, {"measurement": "Kaplan-Meier estimate (95% CI) of testosterone recovery, probability of event", "setting": "serum testosterone; 4 weeks from last dose", "value": "0.00 (0.00.0.00)"}, {"measurement": "Kaplan-Meier estimate (95% CI) of testosterone recovery, probability of event", "setting": "serum testosterone; 8 weeks from last dose", "value": "0.00 (0.00.0.00)"}, {"measurement": "patients whose serum testosterone met the definition of recovery", "setting": "serum testosterone; 12-week follow-up", "value": "6 of 38"}, {"measurement": "Percent recovery (95% CI) to baseline testosterone or >280 ng/dL", "setting": "serum testosterone", "value": "5.3 (0.6.17.7) %"}, {"measurement": "Percent recovery (95% CI) to baseline testosterone or >280 ng/dL", "setting": "serum testosterone; listed as degarelix", "value": 5.3, "unit": "%"}, {"measurement": "Median testosterone", "setting": "serum testosterone; Baseline", "value": 403.8, "unit": "ng/dL"}, {"measurement": "Testosterone Median", "setting": "serum testosterone; Baseline", "value": 14.020, "unit": "nmol/L"}, {"measurement": "Testosterone Mean (Std Dev)", "setting": "serum testosterone; Baseline, Compound 1 120 mg QD or degarelix 80 mg Q4W", "value": "14.567 (5.5680) nmol/L"}, {"measurement": "Testosterone Mean (Std Dev)", "setting": "serum testosterone; EOS", "value": "3.038 (4.0224) nmol/L"}, {"measurement": "Testosterone Median", "setting": "serum testosterone; EOS", "value": 1.040, "unit": "nmol/L"}, {"measurement": "Testosterone Mean (Std Dev)", "setting": "serum testosterone; EOT", "value": "0.576 (1.2218) nmol/L"}, {"measurement": "Testosterone Median", "setting": "serum testosterone; EOT", "value": 0.335, "unit": "nmol/L"}, {"measurement": "Testosterone Mean (Std Dev)", "setting": "serum testosterone; Follow-Up", "value": "1.206 (1.9330) nmol/L"}, {"measurement": "Testosterone Median", "setting": "serum testosterone; Follow-Up", "value": 0.560, "unit": "nmol/L"}, {"measurement": "Median testosterone", "setting": "serum testosterone; Week 24", "value": 8.9, "unit": "ng/dL"}, {"measurement": "Testosterone Mean (Std Dev)", "setting": "serum testosterone; Week 25, Day 1", "value": "0.582 (1.5107) nmol/L"}, {"measurement": "Testosterone Median", "setting": "serum testosterone; Week 25, Day 1", "value": 0.310, "unit": "nmol/L"}, {"measurement": "Median testosterone", "setting": "serum testosterone; Week 28/EOT visit", "value": 9.6, "unit": "ng/dL"}, {"measurement": "Median testosterone", "setting": "serum testosterone; Week 32/follow-up", "value": 16.1, "unit": "ng/dL"}, {"measurement": "Median testosterone", "setting": "serum testosterone; Week 36/EOS", "value": 30.0, "unit": "ng/dL"}, {"measurement": "patients recovered to baseline testosterone or greater than 280 ng/dL", "setting": "serum testosterone; end of 12-week follow-up", "value": 6, "unit": "%"}, {"measurement": "median serum testosterone", "setting": "serum testosterone; end of study visit", "value": "< 50", "unit": "ng/dL"}, {"measurement": "Median time to medical castration (≤50 ng/dL)", "setting": "serum testosterone; in vivo", "value": 3, "unit": "days"}, {"measurement": "Median time to profound castration (≤20 ng/dL)", "setting": "serum testosterone; in vivo", "value": 12, "unit": "days"}, {"measurement": "medical castration rate (less than 50 ng/dL)", "setting": "serum testosterone; over 24 weeks, overall", "value": 89, "unit": "%"}, {"measurement": "profound castration rate (less than 20 ng/dL)", "setting": "serum testosterone; over 24 weeks, overall", "value": 68, "unit": "%"}, {"measurement": "Testosterone recovery (baseline or >280 ng/dL): number with events", "setting": "serum testosterone; overall safety population", "value": "6 (16) n (%)"}, {"measurement": "Testosterone recovery: number censored", "setting": "serum testosterone; overall safety population", "value": "32 (84) n (%)"}, {"measurement": "Time to testosterone recovery, 25th percentile (95% CI)", "setting": "serum testosterone; overall safety population", "value": "100 (87.106) days"}, {"measurement": "Time to testosterone recovery, 75th percentile (95% CI)", "setting": "serum testosterone; overall safety population", "value": "106 (100.106) days"}, {"measurement": "Time to testosterone recovery, Median (95% CI)", "setting": "serum testosterone; overall safety population", "value": "100 (100.106) days"}, {"measurement": "Time to testosterone recovery, Median (95% CI)", "setting": "serum testosterone; overall safety population, listed as degarelix", "value": "100 (100, 106) days"}, {"measurement": "medical castration rate (less than 50 ng/dL)", "setting": "serum testosterone; [3]", "value": 86, "unit": "%"}, {"measurement": "profound castration rate (less than 20 ng/dL)", "setting": "serum testosterone; [3]", "value": 71, "unit": "%"}, {"measurement": "FSH level before administration", "setting": "FSH; Baseline", "value": 11.716, "unit": "IU/L"}, {"measurement": "FSH level", "setting": "FSH; Week 2, Day 1", "value": 2.519, "unit": "IU/L"}, {"measurement": "mean FSH level", "setting": "FSH; Week 25, Day 1", "value": 1.471, "unit": "IU/L"}, {"measurement": "Median PSA", "setting": "PSA; Baseline", "value": 7.3, "unit": "µg/L"}, {"measurement": "Median PSA", "setting": "PSA; Week 24", "value": 0.1, "unit": "µg/L"}, {"measurement": "Median PSA", "setting": "PSA; Week 28/EOT visit", "value": 0.07, "unit": "µg/L"}, {"measurement": "Median PSA", "setting": "PSA; Week 32/follow-up", "value": 0.07, "unit": "µg/L"}, {"measurement": "Median PSA", "setting": "PSA; Week 36/EOS", "value": 0.07, "unit": "µg/L"}, {"measurement": "patients achieving PSA values less than 0.2 ng/ml", "setting": "PSA; by the end of 12 weeks", "value": "1 of 20"}]}]}
